One test has as its system NCI-H1648. Briefly: relative viability (nuclei count vs DMSO), 5 days (fraction); higher = more cells survive. The following applies: first compound 8 µM. In outline:
(§1)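 Cells from lung cancer lines were seeded into 1536-well plates and, one day later, dosed by pin tool. Treatments were either a single drug or a fixed dose of an anchor drug with five library-drug doses (not always all listed) in √10 steps. After 5 days, nuclei were stained in a one-step fixation (final 0.05% Triton X-100, 1% formaldehyde, 1 ug/ml Hoechst) and counted on 4× images, and relative viability is the treated-to-vehicle nuclei ratio, as the median of duplicate plates.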
`C=C1C(=O)O[C@@H](CCCCCCCC)[C@@H]1C(=O)O` [C-75] + Nc1nc2[nH]cc(CCc3ccc(C(=O)N[C@@H](CCC(=O)O)C(=O)O)cc3)c2c(=O)[nH]1 [Pemetrexed] (partner 0.2 µM) registered a relative viability of 0.606.
In turn, `C=C1C(=O)O[C@@H](CCCCCCCC)[C@@H]1C(=O)O` [C-75] + CC(=O)c1c(C)c2cnc(Nc3ccc(N4CCNCC4)cn3)nc2n(C2CCCC2)c1=O [Palbociclib] (partner 0.5 µM) displayed a relative viability of 0.295.

The test system of the next test is NCI-H1666. The description is as above. The following applies: first compound 0.08 µM. In outline: as §1
Consider `Oc1nc(-c2ccc(C(F)(F)F)cc2)nc2c1CSCC2` [XAV939] + O=C(CCCCCCC(=O)Nc1ccccc1)NO [Vorinostat] (partner 1 µM), for which the relative viability was determined as 0.978.
With `C=C1C(=O)O[C@@H](CCCCCCCC)[C@@H]1C(=O)O` [C-75] + Nc1nc2[nH]cc(CCc3ccc(C(=O)N[C@@H](CCC(=O)O)C(=O)O)cc3)c2c(=O)[nH]1 [Pemetrexed] (partner 0.2 µM), the relative viability came to 0.882.
Turning to `Oc1nc(-c2ccc(C(F)(F)F)cc2)nc2c1CSCC2` [XAV939] + O=C(c1cc(Cc2n[nH]c(=O)c3ccccc23)ccc1F)N1CCN(C(=O)C2CC2)CC1 [Olaparib] (partner 8 µM), the relative viability came out at 0.748.
The same measure, in the same setting: in the case of `Oc1nc(-c2ccc(C(F)(F)F)cc2)nc2c1CSCC2` [XAV939] + CC(=O)c1c(C)c2cnc(Nc3ccc(N4CCNCC4)cn3)nc2n(C2CCCC2)c1=O [Palbociclib] (partner 0.5 µM) it was 0.678; in that of `C=C1C(=O)O[C@@H](CCCCCCCC)[C@@H]1C(=O)O` [C-75] + CC(=O)c1c(C)c2cnc(Nc3ccc(N4CCNCC4)cn3)nc2n(C2CCCC2)c1=O [Palbociclib] (partner 0.5 µM), 0.626.

Still in this test, the particulars now being: first compound 0.253 µM.
As for `Oc1nc(-c2ccc(C(F)(F)F)cc2)nc2c1CSCC2` [XAV939] + O=C(CCCCCCC(=O)Nc1ccccc1)NO [Vorinostat] (partner 1 µM), the relative viability amounted to 0.889.
Same read-out and setting: in the case of `C=C1C(=O)O[C@@H](CCCCCCCC)[C@@H]1C(=O)O` [C-75] + Nc1nc2[nH]cc(CCc3ccc(C(=O)N[C@@H](CCC(=O)O)C(=O)O)cc3)c2c(=O)[nH]1 [Pemetrexed] (partner 0.2 µM) it was 0.828.
The same measure, in the same setting: in the case of `Oc1nc(-c2ccc(C(F)(F)F)cc2)nc2c1CSCC2` [XAV939] + O=C(c1cc(Cc2n[nH]c(=O)c3ccccc23)ccc1F)N1CCN(C(=O)C2CC2)CC1 [Olaparib] (partner 8 µM) it was 0.741; in that of `Oc1nc(-c2ccc(C(F)(F)F)cc2)nc2c1CSCC2` [XAV939] + CC(=O)c1c(C)c2cnc(Nc3ccc(N4CCNCC4)cn3)nc2n(C2CCCC2)c1=O [Palbociclib] (partner 0.5 µM), 0.552.
The same measure, in the same setting: in the case of `C=C1C(=O)O[C@@H](CCCCCCCC)[C@@H]1C(=O)O` [C-75] + CC(=O)c1c(C)c2cnc(Nc3ccc(N4CCNCC4)cn3)nc2n(C2CCCC2)c1=O [Palbociclib] (partner 0.5 µM) it was 0.638.

The test is the same for the next values; noted with them: first compound 0.8 µM.
On to `Oc1nc(-c2ccc(C(F)(F)F)cc2)nc2c1CSCC2` [XAV939] + O=C(CCCCCCC(=O)Nc1ccccc1)NO [Vorinostat] (partner 1 µM), for which the relative viability is 0.906.
The same measure, in the same setting: in the case of `C=C1C(=O)O[C@@H](CCCCCCCC)[C@@H]1C(=O)O` [C-75] + Nc1nc2[nH]cc(CCc3ccc(C(=O)N[C@@H](CCC(=O)O)C(=O)O)cc3)c2c(=O)[nH]1 [Pemetrexed] (partner 0.2 µM) it was 0.815; in that of `Oc1nc(-c2ccc(C(F)(F)F)cc2)nc2c1CSCC2` [XAV939] + O=C(c1cc(Cc2n[nH]c(=O)c3ccccc23)ccc1F)N1CCN(C(=O)C2CC2)CC1 [Olaparib] (partner 8 µM), 0.745.
Same read-out and setting: in the case of `Oc1nc(-c2ccc(C(F)(F)F)cc2)nc2c1CSCC2` [XAV939] + CC(=O)c1c(C)c2cnc(Nc3ccc(N4CCNCC4)cn3)nc2n(C2CCCC2)c1=O [Palbociclib] (partner 0.5 µM) it was 0.623; in that of `C=C1C(=O)O[C@@H](CCCCCCCC)[C@@H]1C(=O)O` [C-75] + CC(=O)c1c(C)c2cnc(Nc3ccc(N4CCNCC4)cn3)nc2n(C2CCCC2)c1=O [Palbociclib] (partner 0.5 µM), 0.662.

Still in this test, the particulars now being: first compound 2.53 µM.
In turn, `Oc1nc(-c2ccc(C(F)(F)F)cc2)nc2c1CSCC2` [XAV939] + O=C(CCCCCCC(=O)Nc1ccccc1)NO [Vorinostat] (partner 1 µM) showed a relative viability of 1.15.
On the same count and under the same terms, in the case of `Oc1nc(-c2ccc(C(F)(F)F)cc2)nc2c1CSCC2` [XAV939] + O=C(c1cc(Cc2n[nH]c(=O)c3ccccc23)ccc1F)N1CCN(C(=O)C2CC2)CC1 [Olaparib] (partner 8 µM) it was 0.754; in that of `Oc1nc(-c2ccc(C(F)(F)F)cc2)nc2c1CSCC2` [XAV939] + CC(=O)c1c(C)c2cnc(Nc3ccc(N4CCNCC4)cn3)nc2n(C2CCCC2)c1=O [Palbociclib] (partner 0.5 µM), 0.64.

Still in this test, the particulars now being: first compound 8 µM.
In the case of `C=C1C(=O)O[C@@H](CCCCCCCC)[C@@H]1C(=O)O` [C-75] + Nc1nc2[nH]cc(CCc3ccc(C(=O)N[C@@H](CCC(=O)O)C(=O)O)cc3)c2c(=O)[nH]1 [Pemetrexed] (partner 0.2 µM), the relative viability was determined as 0.796.
`C=C1C(=O)O[C@@H](CCCCCCCC)[C@@H]1C(=O)O` [C-75] + CC(=O)c1c(C)c2cnc(Nc3ccc(N4CCNCC4)cn3)nc2n(C2CCCC2)c1=O [Palbociclib] (partner 0.5 µM) registered a relative viability of 0.594.

Another test has as its system NCI-H1755. The test is described as above. Conditions: first compound 0.08 µM. In outline:
as §1
The molecule `Oc1nc(-c2ccc(C(F)(F)F)cc2)nc2c1CSCC2` [XAV939] + O=C(CCCCCCC(=O)Nc1ccccc1)NO [Vorinostat] (partner 1 µM) gave a relative viability of 0.783.
On the same count and under the same terms, in the case of `C=C1C(=O)O[C@@H](CCCCCCCC)[C@@H]1C(=O)O` [C-75] + Nc1nc2[nH]cc(CCc3ccc(C(=O)N[C@@H](CCC(=O)O)C(=O)O)cc3)c2c(=O)[nH]1 [Pemetrexed] (partner 0.2 µM) it was 0.457; in that of `Oc1nc(-c2ccc(C(F)(F)F)cc2)nc2c1CSCC2` [XAV939] + O=C(c1cc(Cc2n[nH]c(=O)c3ccccc23)ccc1F)N1CCN(C(=O)C2CC2)CC1 [Olaparib] (partner 8 µM), 0.798; in that of `Oc1nc(-c2ccc(C(F)(F)F)cc2)nc2c1CSCC2` [XAV939] + CC(=O)c1c(C)c2cnc(Nc3ccc(N4CCNCC4)cn3)nc2n(C2CCCC2)c1=O [Palbociclib] (partner 0.5 µM), 0.439.
With `C=C1C(=O)O[C@@H](CCCCCCCC)[C@@H]1C(=O)O` [C-75] + CC(=O)c1c(C)c2cnc(Nc3ccc(N4CCNCC4)cn3)nc2n(C2CCCC2)c1=O [Palbociclib] (partner 0.5 µM), the relative viability was determined as 0.417.

The test is the same for the next values; noted with them: first compound 0.253 µM.
Consider `Oc1nc(-c2ccc(C(F)(F)F)cc2)nc2c1CSCC2` [XAV939] + O=C(CCCCCCC(=O)Nc1ccccc1)NO [Vorinostat] (partner 1 µM), for which the relative viability is 0.729.
On the same count and under the same terms, in the case of `C=C1C(=O)O[C@@H](CCCCCCCC)[C@@H]1C(=O)O` [C-75] + Nc1nc2[nH]cc(CCc3ccc(C(=O)N[C@@H](CCC(=O)O)C(=O)O)cc3)c2c(=O)[nH]1 [Pemetrexed] (partner 0.2 µM) it was 0.468.
Same read-out and setting: in the case of `Oc1nc(-c2ccc(C(F)(F)F)cc2)nc2c1CSCC2` [XAV939] + O=C(c1cc(Cc2n[nH]c(=O)c3ccccc23)ccc1F)N1CCN(C(=O)C2CC2)CC1 [Olaparib] (partner 8 µM) it was 0.767.

Source of the values: the supplement of paper PMC10307832.
